Results from patent publication US5208236A, “N-(acylaminomethyl)glutaryl amino acids and use” (Schering Corporation, priority 1992, dated 1993).

What was measured:
[1] = target: neutral endopeptidase (NEP, EC 3.4.24.11) (Homo sapiens, UniProt P08473); test: NEP inhibition in vitro (IC50); assay type: biochemical
Experimental: (§1) The ACE inhibitory activity of the compounds of the present invention is determined via in vitro tests using standard test procedures for ACE inhibition well known to those skilled in the art. Similarly, NEP inhibitory activity is determined via in vitro tests using standard test procedures for NEP inhibition well known to those skilled in the art.

[2] = target: angiotensin converting enzyme (ACE) (Homo sapiens, UniProt P12821); test: ACE inhibition in vitro (IC50); assay type: biochemical
Experimental: as §1

[3] = test system: angiotensin I (AI) challenge; test: A1 Challenge Assay; assay type: in vivo, male Sprague-Dawley rats

Sequence of neutral endopeptidase (NEP, EC 3.4.24.11) (P08473 whole entry, species assumed): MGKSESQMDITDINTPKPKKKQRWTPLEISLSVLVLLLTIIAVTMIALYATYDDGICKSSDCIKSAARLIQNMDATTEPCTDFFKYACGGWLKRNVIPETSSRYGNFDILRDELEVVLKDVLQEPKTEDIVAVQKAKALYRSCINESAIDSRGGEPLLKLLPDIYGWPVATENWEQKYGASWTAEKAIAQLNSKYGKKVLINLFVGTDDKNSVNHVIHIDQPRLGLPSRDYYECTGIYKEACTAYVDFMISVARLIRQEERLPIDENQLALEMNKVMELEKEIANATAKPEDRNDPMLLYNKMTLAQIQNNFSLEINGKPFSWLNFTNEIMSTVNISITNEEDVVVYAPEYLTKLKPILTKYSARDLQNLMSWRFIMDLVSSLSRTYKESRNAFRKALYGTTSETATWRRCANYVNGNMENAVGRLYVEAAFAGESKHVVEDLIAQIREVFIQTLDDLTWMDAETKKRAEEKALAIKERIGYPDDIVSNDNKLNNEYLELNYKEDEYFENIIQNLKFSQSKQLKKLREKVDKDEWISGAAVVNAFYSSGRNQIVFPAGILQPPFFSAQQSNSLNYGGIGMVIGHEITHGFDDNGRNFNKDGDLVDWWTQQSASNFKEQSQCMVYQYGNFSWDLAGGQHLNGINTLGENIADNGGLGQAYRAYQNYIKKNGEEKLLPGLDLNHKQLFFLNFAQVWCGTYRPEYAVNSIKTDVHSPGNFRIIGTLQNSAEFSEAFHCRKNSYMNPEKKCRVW
Sequence of angiotensin converting enzyme (ACE) (P12821 30-1306, species assumed): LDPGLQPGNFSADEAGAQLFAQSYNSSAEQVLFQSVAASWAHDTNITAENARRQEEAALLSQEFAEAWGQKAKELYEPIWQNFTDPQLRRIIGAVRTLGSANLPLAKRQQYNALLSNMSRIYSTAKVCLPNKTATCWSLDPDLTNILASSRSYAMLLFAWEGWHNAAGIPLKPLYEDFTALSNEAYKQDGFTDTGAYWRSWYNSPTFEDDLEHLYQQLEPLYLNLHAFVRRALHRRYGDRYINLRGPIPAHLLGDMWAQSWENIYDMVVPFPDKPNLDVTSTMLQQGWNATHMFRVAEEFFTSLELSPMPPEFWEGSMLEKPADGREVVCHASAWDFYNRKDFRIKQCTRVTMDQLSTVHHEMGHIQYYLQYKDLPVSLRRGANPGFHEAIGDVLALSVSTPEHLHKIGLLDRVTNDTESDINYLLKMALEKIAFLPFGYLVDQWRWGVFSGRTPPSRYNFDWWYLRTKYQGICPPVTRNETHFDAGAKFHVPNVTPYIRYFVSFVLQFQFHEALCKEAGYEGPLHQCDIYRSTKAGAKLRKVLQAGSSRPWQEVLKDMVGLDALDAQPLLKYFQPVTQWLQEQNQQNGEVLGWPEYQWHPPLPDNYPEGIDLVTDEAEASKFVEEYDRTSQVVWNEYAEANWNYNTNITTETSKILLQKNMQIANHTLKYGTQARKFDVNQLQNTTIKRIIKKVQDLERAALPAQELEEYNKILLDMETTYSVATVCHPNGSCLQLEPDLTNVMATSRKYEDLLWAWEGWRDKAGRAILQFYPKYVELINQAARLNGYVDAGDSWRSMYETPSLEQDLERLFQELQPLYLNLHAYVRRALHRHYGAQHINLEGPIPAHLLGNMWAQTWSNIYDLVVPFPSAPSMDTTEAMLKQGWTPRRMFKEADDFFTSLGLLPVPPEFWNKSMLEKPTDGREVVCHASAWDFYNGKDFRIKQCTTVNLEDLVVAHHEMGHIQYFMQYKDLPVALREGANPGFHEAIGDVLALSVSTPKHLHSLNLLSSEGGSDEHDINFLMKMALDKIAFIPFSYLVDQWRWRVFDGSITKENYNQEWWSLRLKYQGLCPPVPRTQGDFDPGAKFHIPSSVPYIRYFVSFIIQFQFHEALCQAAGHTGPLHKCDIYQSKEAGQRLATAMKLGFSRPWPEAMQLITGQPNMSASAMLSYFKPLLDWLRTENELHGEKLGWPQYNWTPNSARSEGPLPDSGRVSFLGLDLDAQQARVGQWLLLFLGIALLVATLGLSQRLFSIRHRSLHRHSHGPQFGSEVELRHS

| Compound | IC50 [1] [nM] | IC50 [2] [nM] | A1 Chall. (% inhibition) ([3]; dose 30 sc) [%] | A1 Chall. (% inhibition) ([3]; dose 10 sc) [%] |
| --- | --- | --- | --- | --- |
| CN(C)C(=O)N[C@@H](CCCCNC(=O)OCc1ccccc1)C(=O)NC[C@H](CC1(C(=O)N[C@@H](Cc2ccc(O)cc2)C(=O)O)CCCC1)C(=O)O [CbzNH C(O) (CH3)2 NH] | 2 | 450 | 88 |  |
| COC(=O)N[C@@H](CCCCNC(=O)OCc1ccccc1)C(=O)NC[C@H](CC1(C(=O)N[C@@H](Cc2ccc(O)cc2)C(=O)O)CCCC1)C(=O)O [CbzNH C(O) CH3 O] | 8 | 15 | 49 |  |
| CN(C)C(=O)N[C@@H](CCCCN)C(=O)NC[C@H](CC1(C(=O)N[C@@H](Cc2ccc(O)cc2)C(=O)O)CCCC1)C(=O)O [NH2 C(O) (CH3)2 NH] | 1 | 15 |  |  |
| COC(=O)N[C@@H](CCCCN)C(=O)NC[C@H](CC1(C(=O)N[C@@H](Cc2ccc(O)cc2)C(=O)O)CCCC1)C(=O)O [NH2 C(O) CH3 O] | 33 | 60 | 92 |  |
| CS(=O)(=O)N(CCCN)CC(=O)NC[C@H](CC1(C(=O)N[C@@H](Cc2ccc(O)cc2)C(=O)O)CCCC1)C(=O)O [NH2 SO2 CH3] | 1 | 6 | 81 |  |

More lines, main results first:

| IC50 [1] [nM] | IC50 [2] [nM] | Compound | A1 Chall. (% inhibition) ([3]; dose 30 sc) [%] | A1 Chall. (% inhibition) ([3]; dose 10 sc) [%] |
| --- | --- | --- | --- | --- |
| 2 | 2 | O=C(NCCCC[C@H](NC(=O)N1CCOCC1)C(=O)NC[C@H](CC1(C(=O)N[C@@H](Cc2ccc(O)cc2)C(=O)O)CCCC1)C(=O)O)OCc1ccccc1 [CbzNH C(O) drawing 38] |  |  |
| 1 | 1 | CN(C)S(=O)(=O)N[C@@H](CCCCNC(=O)OCc1ccccc1)C(=O)NC[C@H](CC1(C(=O)N[C@@H](Cc2ccc(O)cc2)C(=O)O)CCCC1)C(=O)O [CbzNH SO2 (CH3)2 NH] |  |  |
| 2 | 40 | CS(=O)(=O)N(CCCNC(=O)OCc1ccccc1)CC(=O)NC[C@H](CC1(C(=O)N[C@@H](Cc2ccc(O)cc2)C(=O)O)CCCC1)C(=O)O [CbzNH SO2 CH3] |  | 100 |
| 9 | 8 | NCCCC[C@H](NC(=O)N1CCOCC1)C(=O)NC[C@H](CC1(C(=O)N[C@@H](Cc2ccc(O)cc2)C(=O)O)CCCC1)C(=O)O [NH2 C(O) drawing 39] |  |  |
| 32 |  | CN(C)S(=O)(=O)N[C@@H](CCCCN)C(=O)NC[C@H](CC1(C(=O)N[C@@H](Cc2ccc(O)cc2)C(=O)O)CCCC1)C(=O)O [NH2 SO2 (CH3)2 NH] |  |  |
